In patent publication US20050192356A1, “Synergistic anti-inflammatory pharmaceutical compositions and methods of use” (priority 2004, published 2005) one finds IC50 data, which are given here for 4 compounds.

≈ marks a conversion by molar mass, not a printed value. Read-outs that look alike come from different tables or passages of the source.

In this assay the test system is PGE2 synthesis in AGS cells. The assay can be described thus: PGE2 synthesis in the AGS human gastric mucosal cell model (A23187). Format: cell-based. As to the method: Exponentially growing cells were seeded into 6-well plates and grown to confluence. A 20 μL aliquot of the supernatant media was sampled for determination of PGE2 content. Cells were then washed in PBS, scraped and lysed for immunoblotting.

[1] abbreviates: AGS cells, historical control values, read-out: AGS IC50 for PGE2 synthesis, historical control.

The term IC50 denotes the midpoint of a concentration-inhibition curve. As to `CC(=O)Oc1ccccc1C(=O)O` [Aspirin], the IC50 under setting [1] was 0.52 µg/mL (≈ 2.89 µM) and the IC50 (AGS cells, test material 60 minutes prior to A23187, media removed 30 minutes later, average of three independent assays, read-out: AGS IC50 for PGE2 synthesis) came out at 1.2 µg/mL (≈ 6.66 µM).

Consider `Cc1ccc(-c2cc(C(F)(F)F)nn2-c2ccc(S(N)(=O)=O)cc2)cc1` [Celcoxib], for which the IC50 (AGS, read-out: AGS IC50 for PGE2 synthesis, historical control) was found to be 0.024 µg/mL (≈ 0.0629 µM).

With `CS(=O)(=O)c1ccc(C2=C(c3ccccc3)C(=O)OC2)cc1` [Rofecoxib], the IC50 under setting [1] was 1.8 µg/mL (≈ 5.73 µM).

In the case of `CC(C)Cc1ccc(C(C)C(=O)O)cc1` (centres unmarked) [Ibuprofen], the IC50 under setting [1] was found to be 0.57 µg/mL (≈ 2.76 µM).
